Values of other authors in patent publication US5382572A, “Alkyl and acyl substituted quinolines” (Schering Corporation, priority 1993, dated 1995).

What was measured:
HSV-1 = conditions: cell culture; Haines et al., U.S. Pat. No. 4,757,088; cited from earlier work
[1] = system: HSV oral and genital lesions; conditions: humans; Haines et al.; cited from earlier work
HSV-2 = conditions: cell culture; Haines et al., U.S. Pat. No. 4,757,088; cited from earlier work
herpes virus infections = conditions: mammals; Haines et al.; cited from earlier work

SMILES: CCN(CC)CC(=O)Nc1c(C)cccc1C [lidocaine, 2-(diethylamino)-N-(2,6-dimethylphenyl)acetamide]
- antiviral activity against HSV-1 (HSV-1): is an antiviral agent in cell culture against HSV-1 and HSV-2
- treatment of HSV oral and genital lesions [1]: particularly effective in the treatment of HSV oral and genital lesions in humans
- antiviral activity against HSV-2 (HSV-2): is an antiviral agent in cell culture against HSV-1 and HSV-2
- treatment of herpes virus infections (herpes virus infections): is able to treat herpes virus infections of mammals
